Reference: PubChem BioAssay AID1963445 (Molecular Pharmacology Branch, DTP, NCI, 2024)
“And” between values parts separate entries of the source, which are not always exact repeats. Equal values may be shown once.

Tested on: MCF7 complex spheroid growth, % test/control
Assay: Anticancer human tumor MCF7 cell line growth inhibition [Asc];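 note: spheroids exposed to compounds for 7 days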;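 for viability, T/C: 100% = DMSO vehicle control wells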
Details: for viability, T/C: stronger effect = lower value
Summary of the method: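 Concentration series start at each agent's clinical Cmax, or at 10 microM when none is established, and drop in half-log steps; agents are applied alone or together to complex spheroids built with HUVEC and hMSC.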

[1] = curve of first compound, second compound 0.00949 µM
[2] = curve of first compound, second compound 0.03 µM
[3] = curve of first compound, second compound 0.0949 µM
[4] = curve of first compound, second compound 0.3 µM
[5] = curve of first compound, second compound 0.949 µM
[6] = curve of first compound, second compound 3 µM
[7] = second compound 0.00949 µM, first compound 0.00316 µM
[8] = second compound 0.00949 µM, first compound 0.01 µM
[9] = second compound 0.00949 µM, first compound 0.0316 µM
[10] = second compound 0.00949 µM, first compound 0.1 µM
[11] = second compound 0.03 µM, first compound 0.00316 µM
[12] = second compound 0.03 µM, first compound 0.01 µM
[13] = second compound 0.03 µM, first compound 0.0316 µM
[14] = second compound 0.03 µM, first compound 0.1 µM
[15] = second compound 0.0949 µM, first compound 0.00316 µM
[16] = second compound 0.0949 µM, first compound 0.01 µM
[17] = second compound 0.0949 µM, first compound 0.0316 µM
[18] = second compound 0.0949 µM, first compound 0.1 µM
[19] = second compound 0.3 µM, first compound 0.00316 µM
[20] = second compound 0.3 µM, first compound 0.01 µM
[21] = second compound 0.3 µM, first compound 0.0316 µM
[22] = second compound 0.3 µM, first compound 0.1 µM
[23] = second compound 0.949 µM, first compound 0.00316 µM
[24] = second compound 0.949 µM, first compound 0.01 µM
[25] = second compound 0.949 µM, first compound 0.0316 µM
[26] = second compound 0.949 µM, first compound 0.1 µM
[27] = second compound 3 µM, first compound 0.00316 µM
[28] = second compound 3 µM, first compound 0.01 µM
[29] = second compound 3 µM, first compound 0.0316 µM
[30] = second compound 3 µM, first compound 0.1 µM

## NC(=O)C(=Cn1cnc(-c2cc(C(F)(F)F)cc(C(F)(F)F)c2)n1)c1cncnc1 + CCN1C(C(=O)NC23CCC(C(=O)O)(CC2)CC3)C(c2cccc(Cl)c2F)C2(C(=O)Nc3cc(Cl)ccc32)C12CCCCC2
[1]
  IC50: 50 nM
[2]
  IC50: 15.3 nM
[3]
  IC50: < 0.949 nM
[4]
  IC50: < 0.949 nM
[5]
  IC50: < 0.949 nM
[6]
  IC50: < 0.949 nM
Second compound 0.00949 µM, first compound 0.000949 µM
  viability, T/C: 109%
Second compound 0.00949 µM, first compound 0.003 µM
  viability, T/C: 107%
Second compound 0.00949 µM, first compound 0.00949 µM
  viability, T/C: 86.7%
Second compound 0.00949 µM, first compound 0.03 µM
  viability, T/C: 73.6%
Second compound 0.00949 µM, first compound 0.0949 µM
  viability, T/C: 23.7%
Second compound 0.00949 µM, first compound 0.3 µM
  viability, T/C: 14.1%
Second compound 0.03 µM, first compound 0.000949 µM
  viability, T/C: 89.2%
Second compound 0.03 µM, first compound 0.003 µM
  viability, T/C: 75.2%
Second compound 0.03 µM, first compound 0.00949 µM
  viability, T/C: 55.6%
Second compound 0.03 µM, first compound 0.03 µM
  viability, T/C: 44.4%
Second compound 0.03 µM, first compound 0.0949 µM
  viability, T/C: 17.8%
Second compound 0.03 µM, first compound 0.3 µM
  viability, T/C: 14.3%
Second compound 0.0949 µM, first compound 0.000949 µM
  viability, T/C: 45.5%
Second compound 0.0949 µM, first compound 0.003 µM
  viability, T/C: 48%
Second compound 0.0949 µM, first compound 0.00949 µM
  viability, T/C: 30.4%
Second compound 0.0949 µM, first compound 0.03 µM
  viability, T/C: 12.4%
Second compound 0.0949 µM, first compound 0.0949 µM
  viability, T/C: 9.36%
Second compound 0.0949 µM, first compound 0.3 µM
  viability, T/C: 12.6%
Second compound 0.3 µM, first compound 0.000949 µM
  viability, T/C: 25.9%
Second compound 0.3 µM, first compound 0.003 µM
  viability, T/C: 22.5%
Second compound 0.3 µM, first compound 0.00949 µM
  viability, T/C: 16%
Second compound 0.3 µM, first compound 0.03 µM
  viability, T/C: 13.9%
Second compound 0.3 µM, first compound 0.0949 µM
  viability, T/C: 11.8%
Second compound 0.3 µM, first compound 0.3 µM
  viability, T/C: 13.4%
Second compound 0.949 µM, first compound 0.000949 µM
  viability, T/C: 14.8%
Second compound 0.949 µM, first compound 0.003 µM
  viability, T/C: 11%
Second compound 0.949 µM, first compound 0.00949 µM
  viability, T/C: 9.57%
Second compound 0.949 µM, first compound 0.03 µM
  viability, T/C: 10.6%
Second compound 0.949 µM, first compound 0.0949 µM
  viability, T/C: 14%
Second compound 0.949 µM, first compound 0.3 µM
  viability, T/C: 14.7%
Second compound 3 µM, first compound 0.000949 µM
  viability, T/C: 13.1%
Second compound 3 µM, first compound 0.003 µM
  viability, T/C: 10.4%
Second compound 3 µM, first compound 0.00949 µM
  viability, T/C: 10.3%
Second compound 3 µM, first compound 0.03 µM
  viability, T/C: 13.8%
Second compound 3 µM, first compound 0.0949 µM
  viability, T/C: 16.1%
Second compound 3 µM, first compound 0.3 µM
  viability, T/C: 20.5%

## C#Cc1c(F)ccc2cc(O)cc(-c3ncc4c(N5CC6CCC(C5)N6)nc(OCC56CCCN5CC(F)C6)nc4c3F)c12 (stereo not drawn)
Compound 0.0316 µM
  viability, T/C: 97% and 87.3% and 92.6%
Compound 0.1 µM
  viability, T/C: 102% and 115% and 97.1%
Compound 0.316 µM
  viability, T/C: 94.8% and 96.2% and 101%
Compound 1 µM
  viability, T/C: 103% and 97.7% and 108%
Compound 3.16 µM
  viability, T/C: 90.2% and 99% and 101%
Compound 10 µM
  viability, T/C: 87.2% and 87.3% and 87.7%
Curve of compound
  IC50: > 10000 nM

## Cn1ncnc1[C@H]1c2n[nH]c(=O)c3cc(F)cc(c23)N[C@@H]1c1ccc(F)cc1 + CCN1C(C(=O)NC23CCC(C(=O)O)(CC2)CC3)C(c2cccc(Cl)c2F)C2(C(=O)Nc3cc(Cl)ccc32)C12CCCCC2
[1]
  IC50: > 100 nM
[2]
  IC50: > 100 nM
[3]
  IC50: 1.99 nM
[4]
  IC50: < 0.316 nM
[5]
  IC50: < 0.316 nM
[6]
  IC50: < 0.316 nM
Second compound 0.00949 µM, first compound 0.000316 µM
  viability, T/C: 121%
Second compound 0.00949 µM, first compound 0.001 µM
  viability, T/C: 98.8%
[7]
  viability, T/C: 116%
[8]
  viability, T/C: 73.1%
[9]
  viability, T/C: 92.4%
[10]
  viability, T/C: 67%
Second compound 0.03 µM, first compound 0.000316 µM
  viability, T/C: 67.4%
Second compound 0.03 µM, first compound 0.001 µM
  viability, T/C: 96.7%
[11]
  viability, T/C: 75.8%
[12]
  viability, T/C: 77.6%
[13]
  viability, T/C: 55.1%
[14]
  viability, T/C: 51%
Second compound 0.0949 µM, first compound 0.000316 µM
  viability, T/C: 51.9%
Second compound 0.0949 µM, first compound 0.001 µM
  viability, T/C: 56.7%
[15]
  viability, T/C: 52.3%
[16]
  viability, T/C: 38.8%
[17]
  viability, T/C: 37.7%
[18]
  viability, T/C: 37%
Second compound 0.3 µM, first compound 0.000316 µM
  viability, T/C: 35.9%
Second compound 0.3 µM, first compound 0.001 µM
  viability, T/C: 29.8%
[19]
  viability, T/C: 29.7%
[20]
  viability, T/C: 32.9%
[21]
  viability, T/C: 26.1%
[22]
  viability, T/C: 29.1%
Second compound 0.949 µM, first compound 0.000316 µM
  viability, T/C: 21.5%
Second compound 0.949 µM, first compound 0.001 µM
  viability, T/C: 23.1%
[23]
  viability, T/C: 16.4%
[24]
  viability, T/C: 15.9%
[25]
  viability, T/C: 20.8%
[26]
  viability, T/C: 18.4%
Second compound 3 µM, first compound 0.000316 µM
  viability, T/C: 15.6%
Second compound 3 µM, first compound 0.001 µM
  viability, T/C: 17.2%
[27]
  viability, T/C: 15.5%
[28]
  viability, T/C: 13.1%
[29]
  viability, T/C: 13.9%
[30]
  viability, T/C: 14.6%

## CNC(C)C(=O)NC1CN(S(=O)(=O)c2cccc(S(=O)(=O)N3CCC4CCC(C(=O)NC(c5ccccc5)c5ccccc5)N4C(=O)C(NC(=O)C(C)NC)C3)c2)CCC2CCC(C(=O)NC(c3ccccc3)c3ccccc3)N2C1=O (stereo not drawn) + CCN1C(C(=O)NC23CCC(C(=O)O)(CC2)CC3)C(c2cccc(Cl)c2F)C2(C(=O)Nc3cc(Cl)ccc32)C12CCCCC2
[1]
  IC50: 4.89 nM
[2]
  IC50: 4.19 nM
[3]
  IC50: < 3.16 nM
[4]
  IC50: < 3.16 nM
[5]
  IC50: < 3.16 nM
[6]
  IC50: < 3.16 nM
[7]
  viability, T/C: 69.8%
[8]
  viability, T/C: 17.4%
[9]
  viability, T/C: 16.6%
[10]
  viability, T/C: 14.7%
Second compound 0.00949 µM, first compound 0.316 µM
  viability, T/C: 17.1%
Second compound 0.00949 µM, first compound 1 µM
  viability, T/C: 15.5%
[11]
  viability, T/C: 61.2%
[12]
  viability, T/C: 13.8%
[13]
  viability, T/C: 13.1%
[14]
  viability, T/C: 19%
Second compound 0.03 µM, first compound 0.316 µM
  viability, T/C: 15.5%
Second compound 0.03 µM, first compound 1 µM
  viability, T/C: 15.8%
[15]
  viability, T/C: 32.7%
[16]
  viability, T/C: 8.77%
[17]
  viability, T/C: 9.56%
[18]
  viability, T/C: 11.9%
Second compound 0.0949 µM, first compound 0.316 µM
  viability, T/C: 11.5%
Second compound 0.0949 µM, first compound 1 µM
  viability, T/C: 16%
[19]
  viability, T/C: 15.1%
[20]
  viability, T/C: 8.53%
[21]
  viability, T/C: 9.64%
[22]
  viability, T/C: 9.86%
Second compound 0.3 µM, first compound 0.316 µM
  viability, T/C: 11%
Second compound 0.3 µM, first compound 1 µM
  viability, T/C: 12.2%
[23]
  viability, T/C: 10.9%
[24]
  viability, T/C: 10%
[25]
  viability, T/C: 7.29%
[26]
  viability, T/C: 8.83%
Second compound 0.949 µM, first compound 0.316 µM
  viability, T/C: 10.5%
Second compound 0.949 µM, first compound 1 µM
  viability, T/C: 12%
[27]
  viability, T/C: 11.6%
[28]
  viability, T/C: 9.65%
[29]
  viability, T/C: 9.98%
[30]
  viability, T/C: 9.21%
Second compound 3 µM, first compound 0.316 µM
  viability, T/C: 12.1%
Second compound 3 µM, first compound 1 µM
  viability, T/C: 12.5%
